Reference: patent publication US4308210A, “Nanaomycin B and therapeutic compositions containing same” (The Kitasato Institute, priority 1976, dated 1981)
Values after ≈ are worked out from the molar mass of the structure shown. Where two headings read alike, the source gives them in different places.

Experiments:
Test in all cases: Antimicrobial spectrum, MIC, PPLO agar
Format in all cases: cell-based
[1] = system: Acholeplasma laidlawii (B) Bml; conditions: 192 h
Procedure: (§1) H Hokken PPLO agar (pH 7.8, 8 days, 37° C.)
(§2) E Eiken PPLO agar (pH 7.8, 8 days, 37° C.)
(§3) MIC Minimal inhibitory concentration

[2] = system: Mycoplasma gallisepticum 333P (Spiramycin resistant); conditions: for MIC: Mycoplasmoides gallisepticum, 192 h
Procedure: as §1, §2, §3

[3] = system: Mycoplasma gallisepticum KP-13; conditions: Mycoplasmoides gallisepticum, KP13, 192 h
Procedure: as §1, §2, §3

[4] = system: Mycoplasma gallisepticum S-6; conditions: Mycoplasmoides gallisepticum, S6, 192 h
Procedure: as §1, §2, §3

[5] = pH 7.8, Eiken PPLO agar (pH 7.8, 8 days, 37° C.)
[6] = pH 7.8, Hokken PPLO agar (pH 7.8, 8 days, 37° C.)

With `CC1OC(CC(=O)O)CC2C(=O)c3cccc(O)c3C(=O)C12O` (stereo not drawn) [Nanaomycin B] the MIC [1, 5] was > 25 µg/mL, the MIC [1, 6] was 25 µg/mL (≈ 78.1 µM) and the MIC [2, 5] was 0.05 µg/mL (≈ 0.156 µM). The MIC [2, 6] was 0.013 µg/mL (≈ 0.0406 µM), the “antimicrobial activity on spiramycin-resistant Mycoplasma gallisepticum” value ([2]; in words) was “high antimicrobial activity” and the MIC [3, 6] was < 0.013 µg/mL. For the same compound, the MIC ([3]; Eiken PPLO agar (pH 7.8, 8 days, 37° C.), read-out: MIC) was 0.1 µg/mL (≈ 0.312 µM), the MIC [4, 5] was 0.1 µg/mL (≈ 0.312 µM) and the MIC [4, 6] was < 0.013 µg/mL.
